Measurements from US9849104B2 (Gemphire Therapuetics Inc., priority 2015, dated 2017).

Tested on: fibrinogen
Assay: Fibrinogen in hypercholesterolemic patients, post hoc analysis of Study A4141001
Type: in vivo, human
Conditions: for Difference in fibrinogen change, Gem-placebo: subgroup baseline >400 mg/dL
Method: Week 0) and the end (Visit T8, Week 8). Analyses of covariance (ANCOVA) methods used in the original study A4141001 were again utilized in these analyses. For fibrinogen, baseline was defined as the last pretreatment visit, and endpoint was the last visit up to and including the day after last dose of medication. The least-squares means and p-values for change from baseline in fibrinogen were calculated using an ANCOVA model with the effects of baseline lipid value and treatment. Also, medians and p-values for percent change from baseline. […] This, consequently, was the definition for the modified intent-to treat (MITT) population.

CC(C)(CCCCOCCCCC(C)(C)C(=O)O)C(=O)O [Gemcabene, 6,6′-oxybis(2,2-dimethylhexanoic acid)]
Difference in fibrinogen change = Gem − Placebo (MITT, Gemcabene 300 mg): −13.0 | Difference in fibrinogen change, Gem-placebo (Gem 300 mg): 5.0 | Difference in fibrinogen change, Gem-placebo (Gem 900 mg): −34.0
